Data from patent US20170247326A1, “Substituted Pyrrolidine Carboxamide Compounds” (EPIZYME, INC., priority 2014, published 2017).

tested on: esophageal, liver and breast cancer cell lines; experiment: not given; conditions: dose-dependent; Nguyen et al. J Biol Chem. 2015; cited from earlier work

Structure (SMILES) | proliferation of several esophageal, liver and breast cancer cell lines
Cc1cn(CCN2CCN(c3ccccc3-c3cc(C#N)cc(C(=O)NCCCN4CCCC4)c3)CC2)c2ccccc12 [LLY-507] | inhibited the proliferation

biological target: T1, SMYD2 (Homo sapiens, UniProt Q9NRG4); experiment: SMYD2 biochemical assay (3H-SAM, biotinylated peptide substrate, Flashplate); conditions: Table 1; average of n = 1 to n = 50; read-out: SMYD2 Biochem IC50
T1 construct: Full length SMYD2 (NP_064582.2) was cloned; His6 (N, cleaved yes); FLAG (N); made in house; host or cells: Sf9 insect cells
T1 sequence (Q9NRG4 whole entry): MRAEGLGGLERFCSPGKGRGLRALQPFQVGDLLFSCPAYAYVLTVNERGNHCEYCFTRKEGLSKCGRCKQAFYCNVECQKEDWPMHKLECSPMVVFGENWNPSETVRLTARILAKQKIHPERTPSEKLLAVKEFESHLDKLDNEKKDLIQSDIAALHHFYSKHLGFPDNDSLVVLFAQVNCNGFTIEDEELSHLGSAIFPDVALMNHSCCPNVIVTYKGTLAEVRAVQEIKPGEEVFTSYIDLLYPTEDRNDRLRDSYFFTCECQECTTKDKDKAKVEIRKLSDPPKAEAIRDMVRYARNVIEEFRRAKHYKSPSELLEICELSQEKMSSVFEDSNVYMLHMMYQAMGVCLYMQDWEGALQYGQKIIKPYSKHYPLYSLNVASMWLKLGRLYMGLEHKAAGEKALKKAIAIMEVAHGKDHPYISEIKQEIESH
Method in brief: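 Full-length His/FLAG-tagged SMYD2 (tag removed, Sf9-expressed) at 1.5 nM was preincubated with compound for 30 min at room temperature in Bicine pH 7.6 buffer with 2% DMSO. Reaction used 10 nM 3H-SAM and 60 nM biotinylated peptide, stopped with 600 uM cold SAM. Streptavidin-captured 3H-peptide counted; IC50 from 3- or 4-parameter fit.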

IC50 | Structure (SMILES)
> 50 µM | Cc1cc(C(=O)N[C@H]2CN(C3CC3)C[C@@H]2C)n(Cc2ccccc2)n1 (racemic) [compound 9, (±)-trans-1-benzyl-N-(1-cyclopropyl-4-methylpyrrolidin-3-yl)-3-methyl-1H-pyrazole-5-carboxamide]

same assay, conditions: Table 3; average of n = 1 to n = 50; read-out: SMYD2 Biochem IC50

Structure (SMILES) | IC50
CC(C)N1C[C@H](C)[C@H](NC(=O)c2nnc(C3CC3)s2)C1 (racemic) [compound 41, (±)-cis-5-cyclopropyl-N-[4-methyl-1-(propan-2-yl)pyrrolidin-3-yl]-1,3,4-thiadiazole-2-carboxamide] | 2.68 µM
CC(C)N1C[C@H](C)[C@H](NC(=O)c2cnc(C3CC3)cn2)C1 (racemic) [compound 51, (±)-cis-5-cyclopropyl-N-[4-methyl-1-(propan-2-yl)pyrrolidin-3-yl]pyrazine-2-carboxamide] | > 50 µM
CC(C)N1CCC(NC(=O)c2cc(C3CC3)cnn2)C1 (stereo not shown) [compound 95, 5-cyclopropyl-N-[1-(propan-2-yl)pyrrolidin-3-yl]pyridazine-3-carboxamide] | 6.07 µM
CC(C)N1CCC(C(=O)Nc2cc(O)c3c(c2)OCC(=O)N3)C1 (stereo not shown) [compound 87, N-(5-hydroxy-3-oxo-3,4-dihydro-2H-1,4-benzoxazin-7-yl)-1-(propan-2-yl)pyrrolidine-3-carboxamide] | > 50 µM

The remaining lines, values ahead:

IC50 | Structure (SMILES)
> 50 µM | CC(C)N1C[C@@H](C)[C@H](NC(=O)c2ncc(C3CC3)cn2)C1 (racemic) [compound 66, (±)-trans-5-cyclopropyl-N-[4-methyl-1-(propan-2-yl)pyrrolidin-3-yl]pyrimidine-2-carboxamide]
> 50 µM | CC(C)N1C[C@@H](C)[C@H](NC(=O)c2c[nH]c(C3CC3)n2)C1 (racemic) [compound 71, (±)-trans-2-cyclopropyl-N-[4-methyl-1-(propan-2-yl)pyrrolidin-3-yl]-1H-imidazole-4-carboxamide]
> 50 µM | CC(C)N1C[C@@H](C)[C@H](NC(=O)c2cc(C3CC3)[nH]n2)C1 (racemic) [compound 62, (±)-trans-5-cyclopropyl-N-[4-methyl-1-(propan-2-yl)pyrrolidin-3-yl]-1H-pyrazole-3-carboxamide]
> 50 µM | CC(C)N1C[C@H](C)[C@H](NC(=O)c2cc3c(cn2)OC(F)(F)O3)C1 (racemic) [compound 75, (±)-cis-2,2-difluoro-N-[4-methyl-1-(propan-2-yl)pyrrolidin-3-yl]-2H-[1,3]dioxolo[4,5-c]pyridine-6-carboxamide]
